{"source": "paper PMC7358525", "about": "“Characterization of PF-6142, a Novel, Non-Catecholamine Dopamine Receptor D1 Agonist, in Murine and Nonhuman Primate Models of Dopaminergic Activation” (Frontiers in Pharmacology, 2020)", "type_in_all_cases": "in vivo", "key": {"[1]": {"test_system": "ACh levels in the rat PFC", "experiment": "Prefrontal cortex acetylcholine levels via microdialysis, rat", "excerpt": "Adult male Sprague-Dawley rats (280–360 g) were obtained from Charles-River Laboratories, Raleigh, NC and male C57BL/6J DRD1a WT and D1 DA receptor knockout mice (DRD1a-905781) were obtained from The Jackson Laboratories (Bar Harbor, ME). Animals were housed on a 12-h light/dark cycle with free access to food and water and allowed to acclimate for at least 5 d after arrival. Aseptic technique was used during the surgical procedure in order to prevent infection. On the day of the procedure animals were anesthetized with isoflurane (4%) and their heads shaved. The animals were then placed into a Kopf stereotaxic frame, the surgical area disinfected by swabbing with Provodine solution, and the area isolated with a sterile surgical drape. Anesthesia was maintained with isoflurane (2.5%–3%) delivered through a nose cone using a Univentor 400 anesthesia unit. Animals were given a 0.1 ml subcutaneous (s.c.) injection of Metacam (NSAID, meloxicam, 5 mg/ml, Boehringer Ingelheim) as a post-operative analgesic. Marcaine (bupivacaine, 0.5%, Hospira, Lake Forest, IL), a long acting local anesthetic, was administered s.c. at the surgical area to minimize pain and discomfort. […]\nFor conventional analysis, ACh was analyzed by high performance liquid chromatography (HPLC) utilizing a modification of the BAS ACh-choline assay kit (BAS part # MF-8910). […]"}, "[2]": {"experiment": "Plasma exposure (PK), NHP", "details": "0.1 mg/kg SC, 0.5 h", "experimental": "Across the set of experiments, PK was either collected from satellite animals or in separate, dedicated studies. In addition to plasma PK, exposures were obtained in brain tissue for rat and mouse, and plasma protein binding and brain tissue binding were measured. Using the measured exposures, partitioning, and binding parameters, and the […]"}, "[3]": {"test_system": "conditioned avoidance responding", "experiment": "Rat conditioned avoidance response (CAR)", "experimental": "The CAR assay was performed under similar conditions previously described ([Marquis et al., 2011]) at WuXiAppTec Inc. (Delin Rd. #90, Waigaoquiao Free Trade Zone, Shanghai 200131, China). For this study, adult male Fisher-344 rats were trained and tested in a two-way active avoidance apparatus with MED-PC software (MED Associates, St. Albans, VT, USA).\nBriefly, subjects were handled and acclimated to the shuttle boxes for 2 d prior to training sessions. During training sessions, subjects were trained to avoid an electric footshock by moving to the adjacent, non-stimulus side of the shuttle box upon presentation of tone + light stimuli which preceded the presentation of the footshock (0.6 mA, 10 s duration) by 10 s. For this assay an avoidance was defined as moving to the adjacent compartment during the tone+light presentation that preceded the shock, an escape was defined as moving to the adjacent compartment upon presentation of the shock, and an escape failure was defined as a lack of relocation to the adjacent compartment throughout the presentation of the shock. Subjects received 30 trials of training per day for 5 d. Subjects with ≥ 80% avoidance responses on two consecutive days with no escape failures, were considered qualified for testing, and were randomized across treatment groups (n=8–9 per treatment group). […] Avoidance responding was calculated as % of the number of total trials in which an avoidance occurred. Data were calculated for each animal and compared across treatment groups using one-way ANOVA with Dunnett’s post-test versus the vehicle + vehicle treated group."}}, "data": [{"molecule": "Cc1cc(Oc2nccc3occc23)ccc1-c1c(C)ncc2nccn12", "note": "[PF-6142]", "values": [{"measurement": "PF-6142 mediated increase in cortical ACh after repeated dosing (AUC 75-180 min, day 5)", "setting": "[1]; 10 mg/kg SC for five consecutive days", "value": "maintained"}, {"measurement": "cortical ACh levels, time course", "setting": "[1]; PF-6142 10 mg/kg SC acute on day 5 after subchronic vehicle, vs 5 d vehicle", "value": "increased cortical ACh levels"}, {"measurement": "PF-6142 plasma concentration", "setting": "[2]", "value": 31, "unit": "ng/mL"}, {"measurement": "% avoidance responses", "setting": "[3]; PF-6142 1.78 mg/kg s.c. + risperidone 0.1 mg/kg s.c.", "value": 76.25, "unit": "%"}, {"measurement": "% avoidance responses", "setting": "[3]; PF-6142 1.78 mg/kg s.c. + risperidone 0.56 mg/kg s.c.", "value": 8.125, "unit": "%"}, {"measurement": "% avoidance responding", "setting": "[3]; PF-6142 1.78 mg/kg s.c. alone, combination study (Figure 4D)", "value": 94.38, "unit": "%"}, {"measurement": "mean % avoidance responses", "setting": "[3]; PF-6142 alone 0.32 mg/kg s.c.", "value": 95.93, "unit": "%"}, {"measurement": "mean % avoidance responses", "setting": "[3]; PF-6142 alone 1.78 mg/kg s.c., dose-range study", "value": 98.47, "unit": "%"}, {"measurement": "mean % avoidance responses", "setting": "[3]; PF-6142 alone 3.2 mg/kg s.c.", "value": 95.57, "unit": "%"}, {"measurement": "mean % avoidance responses", "setting": "[3]; PF-6142 alone 5.6 mg/kg s.c.", "value": 95.75, "unit": "%"}]}]}
